# Test results: patent EP0374249A1, “METHOD OF STERILIZING PLANT POLLEN” (VSESOJUZNY NAUCHNO-ISSLEDOVATELSKY INST. SELSKOKHOZYAISTV. …, priority 1988, dated 1989)
# Assays:
# [1] = Toxicity test in animals (LD50); conditions: in vivo; animal test, per kg animal weight; species and route not given
# Text: Alle erfindungsgemässen N-substituierten Maleaminsäuren, welche als Sterilisationsmittel zur Verwendung kommen, waren auf die Toxizität im Tierversuch geprüft. Die Prüfergebnisse haben ergeben, dass die angegebenen Verbindungen von schwacher oder mittlerer Toxizität sind.
# [2] = tested on: diploidem Roggen Sorte Talovskaya 12; assay: Field test of pollen sterilisation, diploid rye Talovskaya 12; assay type: in vivo; conditions: 1% aqueous emulsion, 6 kg/ha; for Prozentsatz der Sterilität / Anzahl von Körnern der Ähre bei freier Bestäubung / Anzahl von Körnern der Ähre im Isolator: period V of organogenesis; for Anzahl von Körnern der Ähre bei freier Bestäubung: free pollination; for Anzahl von Körnern der Ähre im Isolator: isolated ears; for Prozentsatz des Ansetzens von Körnern bei freier Bestäubung: period V, non-isolated control ears = 100%
# Text: (§7) Mit dem Ahrenschiebe verwirklicht man die Isolierung von Hauptähren und anderen Stockwerken in Pergamentbeuteln. […] Bei Roggen schliesst man je Ähre 5 bis 7 verschiedene nebeneinander befindliche Pflanzen unter einen gemeinsamen Isolator ein. […] Der Sterilitätsprozentsatz (X) für Weizen, Roggen, Tritikale und Hirse wird nach folgender Formel [formula] ermittelt.
# Pflanzen von diploidem Roggen Sorte Talovskaya 12 werden in der V. Periode der Organogenese (nach Kupermann) mit einer 1%igen wässrigen Emulsion von N-(2-Di- methylaminoäthyl)-maleaminsäure, N-(3-Dimethylaminopropyl)-maleaminsäure, N-Äthylmaleaminsäure, N-(2-Hydroxyäthyl)maleaminsäure, N-Karbamoylmaleaminsäure behandelt. Die Emulsion enthält 0,01 Masse% Dodezylsulfat und 0,1 Masse% Kalziumalkylbenzolsulfonat mit 12 bis _14 Kohlenstoffatomen. Der Verbrauch an Präparat beträgt 6 kg/ha. Als Kontrolle dienen Pflanzen, behandelt mit einem Verdünner ohne Sterilisationsmittel.
# [3] = tested on: Sommerweizens Sorte Moskovskaya 35; assay: Field test of pollen sterilisation, spring wheat Moskovskaya 35; assay type: in vivo, Sommerweizen; conditions: 1% aqueous emulsion, 10 kg/ha; for Prozentsatz der Sterilität / Anzahl von Körnern der Ähre bei freier Bestäubung / Anzahl von Körnern der Ähre im Isolator: period V of organogenesis; for Anzahl von Körnern der Ähre bei freier Bestäubung: free pollination; for Anzahl von Körnern der Ähre im Isolator: isolated ears; for Prozentsatz des Ansetzens von Körnern bei freier Bestäubung: period V, non-isolated control ears = 100%
# Text: Pflanzen des Sommerweizens Sorte Moskovskaya 35 werden in V. Periode der Organogenese (nach Kupermann) mit einer 1%igen wässrigen Emulsion von N-(2-Dimethyl-aminoäthyl)-maleaminsäure, N-(3-Dimethylaminopropyl)-maleaminsäure, N-Äthylmaleaminsäure, N-(2-Hydroxyäthyl) maleaminsäure bzw. N-Karbamoylmaleaminsäure behandelt. Die Emulsion enthält 0,5 Masse% Kalziumalkylbenzolsulfonat mit 12 bis 14 Kohlenstoffatomen als Emulgierungsmittel und 0,01 Masse% Dimethylformamid als Adjuvans. Der Verbrauch an Präparat beträgt 10 kg/ha. Als Kontrolle dienen Pflanzen, behandelt mit einem Verdünner ohne Sterilisationsmittel.
# [4] = tested on: diploidem Roggen Sorte Voskhod 2; assay: Field test of pollen sterilisation, diploid rye Voskhod 2; assay type: in vivo; conditions: 1% aqueous emulsion, 10 kg/ha; for Prozentsatz der Sterilität / Anzahl von Körnern der Ähre bei freier Bestäubung / Anzahl von Körnern der Ähre im Isolator: period V of organogenesis; for Anzahl von Körnern der Ähre bei freier Bestäubung: free pollination; for Anzahl von Körnern der Ähre im Isolator: isolated ears; for Prozentsatz des Ansetzens von Körnern bei freier Bestäubung: period V, non-isolated control ears = 100%
# Text: Die Emulsion enthält 0,1 Masse% Kalziumalkylbenzolsulfonat und 0,01 Masse% Dimethylformamid. Der Verbrauch an Präparat beträgt 10 kg/ha. Als Kontrolle dienen Pflanzen, behandelt mit einem Lösungsmittel ohne Sterilisationsmittel.
# [5] = tested on: tetraploidem Roggen Sorte Belta; assay: Field test of pollen sterilisation, tetraploid rye Belta; assay type: in vivo; conditions: 1% aqueous emulsion, 10 kg/ha; for Prozentsatz der Sterilität / Anzahl von Körnern der Ähre bei freier Bestäubung / Anzahl von Körnern der Ähre im Isolator: period V of organogenesis; for Anzahl von Körnern der Ähre bei freier Bestäubung: free pollination; for Anzahl von Körnern der Ähre im Isolator: isolated ears; for Prozentsatz des Ansetzens von Körnern bei freier Bestäubung: period V, non-isolated control ears = 100%
# Text: (§1) Die gametozide Aktivität der erfindungsgemässen Sterilisationsmittel war im Feldversuch in verschiedenen Bodenklimatischen Zonen mit Teilstücken von 10 m^2 Grösse in drei- bis viermaliger Wiederholung nachgewiesen. Jedes Sterilisationsmittel wurde mindestens 5 Jahre lang geprüft.
# (§2) Die Entwicklung der Perioden der Organogenese wird zytologischüberwacht. Die Behandlung von Pflanzen mit dem Sterilisationsmittel erfolgt am Anfang der fünften Periode der Organogenese nach Kupermann.
# (§3) Mit dem Ahrenschiebe verwirklicht man die Isolierung von Hauptähren und anderen Stockwerken in Pergamentbeuteln. Bei Weizen und Tritikale werden Einzelisolatoren verwendet. Bei Roggen schliesst man je Ähre 5 bis 7 verschiedene nebeneinander befindliche Pflanzen unter einen gemeinsamen Isolator ein. Bei Hirse wird jede Rispe getrennt isoliert. Der Sterilitätsprozentsatz (X) für Weizen, Roggen, Tritikale und Hirse wird nach folgender Formel [formula] ermittelt.
# (§4) Die Kornzahl in nicht isolierten ähren von Kontrollpflanzen wird bedingt für 100% Ansetzen bei freier Bestäubung angenommen.
# (§5) Um zuverlässige Angaben zu erhalten, verwendet man 20 bis 25 Isolatoren jeder Wiederholung für Weisen und Tritikale, 10 bis 15 Gruppenisolatoren jeder Wiederholung für Roggen und Hirse.
# Pflanzen von tetraploidem Roggen Sorte Belta werden in der V. Periode der Organogenese (nach Kupermann) mit einer 1%igen wässrigen Emulsion von N-(2-Dimethylamino- .äthyl)maleaminsäure, N-(3-Dimethylaminopropyl)maleaminsäure, N-Äthylmaleaminsäure, N-(2-Hydroxyäthyl)maleaminsäure bzw. Karbamoylmaleaminsäure behandelt. Die Emulsion enthält 0,5 Masse% Kalziumalkylbenzolsulfonat mit 12 bis 14 Kohlenstoffatomen und 0,01 Masso% Tetrahydrofuran. Der Verbrauch an Präparat beträgt 10 kg/ha. Die Prüfergebnisse sind in der Tabelle 5 dargestellt. […] Periode der Organogenese erhalten.
# [6] = tested on: Sommerweizens Sorte Botanicheskaya 4; assay: Field test of pollen sterilisation, spring wheat Botanicheskaya 4; assay type: in vivo, Sommerweizen; conditions: 1% aqueous emulsion, 6 kg/ha; for Prozentsatz der Sterilität / Anzahl von Körnern der Ähre bei freier Bestäubung / Anzahl von Körnern der Ähre im Isolator: period V of organogenesis; for Anzahl von Körnern der Ähre bei freier Bestäubung: free pollination; for Anzahl von Körnern der Ähre im Isolator: isolated ears; for Prozentsatz des Ansetzens von Körnern bei freier Bestäubung: period V, non-isolated control ears = 100%
# Text: Pflanzen des Sommerweizens Sorte Botanicheskaya 4 werden in der V. Periode der Organogenese (nach Kupermann) mit einer 1%igen Wässrigen Emulsion von N-(2-Dimethyl-aminoäthyl)-maleaminsäure, N-(3-Dimethylaminopropyl)-maleaminsäure, N-Äthylmaleaminsäure, N-(2-Hydroxyäthyl)-maleaminsäure bzw. N-Karbamoylmaleaminsäure behandelt. Die Emulsion enthält 0,5 Masse% Kalziumalkylbenzolsulfonat mit 12 bis 14 Kohlenstoffatomen und 0,01 Masse% Dimethylsulfoxid als Adjuvans. Der Verbrauch an Präparat beträgt 6 kg/ha. Als Kontrolle dienen Pflanzen, behandelt mit einem Verdünner ohne Sterilisationsmittel.
# [7] = tested on: Hirse Sorte Mironovskoe 94; assay: Field test of pollen sterilisation, millet Mironovskoe 94; assay type: in vivo; conditions: 1% aqueous emulsion, 8 kg/ha; for Prozentsatz der Sterilität / Anzahl von Körnern der Rispe bei freier Bestäubung / Anzahl von Körnern der Rispe im Isolator: period V of organogenesis; for Anzahl von Körnern der Rispe bei freier Bestäubung: free pollination; for Anzahl von Körnern der Rispe im Isolator: isolated panicles; for Prozentsatz des Ansetzens von Körnern bei freier Bestäubung: period V, non-isolated control = 100%
# Text: as §1, §2, §3, §4, §5
# Pflanzen der Hirse Sorte Mironovskoe 94 werden in der V. Periode der Organogenese (nach Kupermann) mit einer 1%igen wässrigen Emulsion von N-(2-Dimethylaminoäthyl)maleaminsäure, N-(3-Dimethylaminopropyl)maleaminsäure, N-Äthylmaleaminsäure, N-(2-Hydroxyäthyl)maleaminsäure, N-Karbamoylmaleaminsäure behandelt. Die Emulsion enthält 0,01 Masse% Dimethylaulfoxid und 0,1 Masse% Kalziumalkylbenzolsulfonat mit 12 bis 14 Kohlenstoffatomen. Der Verbrauch an Präparat beträgt 8 kg/ha. Als Kontrolle dienen Pflanzen, behandelt mit einem Verdünner ohne Sterilisationsmittel. Die Prüfergebnisse sind in der Tabelle 12 dargestellt. […] Periode der Organogenese erhalten.
# [8] = tested on: diploidem Roggen Sorte Chulpan; assay: Field test of pollen sterilisation, diploid rye Chulpan; assay type: in vivo; conditions: 1% aqueous emulsion, 8 kg/ha; for Prozentsatz der Sterilität / Anzahl von Körnern der Ähre bei freier Bestäubung / Anzahl von Körnern der Ähre im Isolator: period V of organogenesis; for Anzahl von Körnern der Ähre bei freier Bestäubung: free pollination; for Anzahl von Körnern der Ähre im Isolator: isolated ears; for Prozentsatz des Ansetzens von Körnern bei freier Bestäubung: period V, non-isolated control ears = 100%
# Text: as §7
# Die Emulsion enthält 0,01 Masse% Tetranydrofuran und 0,1 Masse% Kalziumalkylbenzolsulfonat mit 12 bis 14 Kohlenstoffatomen. Der Verbrauch an Präparat beträgt 8 kg/ha. Als Kontrolle dienen Pflanzen, behandelt mit einem Verdünner ohne Sterilisationsmittel.
# [9] = tested on: Winterweizens Sorte Bezostaya 1; assay: Field test of pollen sterilisation, winter wheat Bezostaya 1; assay type: in vivo, Winterweizen; conditions: 2% aqueous emulsion, 16 kg/ha; for Prozentsatz der Sterilität / Anzahl von Körnern der Ähre bei freier Bestäubung / Anzahl von Körnern der Ähre im Isolator: period V of organogenesis; for Anzahl von Körnern der Ähre bei freier Bestäubung: free pollination; for Anzahl von Körnern der Ähre im Isolator: isolated ears; for Prozentsatz des Ansetzens von Körnern bei breier Bestäubung: period V, non-isolated control ears = 100%
# Text: Pflanzen des Winterweizens Sorte Bezostaya 1 werden in der V. Periode der Organogenese durch Zerstäubung einer 2%igen wässrigen Emulsion von N-(2-Dimethylaminoäthyl)-maleaminsäure, N-(3-Dimethylaminopropyl)-maleaminsäure, N-Äthylmaleaminsäure, N-(2-Hydroxyäthyl)-maleaminsäure, N-Karbamoylmaleaminsäure mit Hilfe deiner Rückspritze behandelt. Die Emulsion enthält 0,1 Masse% Kalziumalkylbenzolsulfonat mit 12 bis 14 Kohlenstoffatomen. Als Adjuvans führt man in die Emulsion 0,01 Masse% Tetrahydrofuran ein.
# Der Verbrauch an Präparat beträgt 16 kg/ha. Als Kontrolle dienen Pflanzen, behandelt mit einem Verdünner ohne Sterilisationsmitteln.
# [10] = tested on: tetraploidem Roggen Sorte Ukrainskaya tetra; assay: Field test of pollen sterilisation, tetraploid rye Ukrainskaya tetra; assay type: in vivo; conditions: 1% aqueous emulsion, 6 kg/ha; for Prozentsatz der Sterilität / Anzahl von Körnern der Ähre bei freier Bestäubung / Anzahl von Körnern der Ähre im Isolator: period V of organogenesis; for Anzahl von Körnern der Ähre bei freier Bestäubung: free pollination; for Anzahl von Körnern der Ähre im Isolator: isolated ears; for Prozentsatz des Ansetzens von Körnern bei freier Bestäubung: period V, non-isolated control ears = 100%
# Text: (§6) Jedes Sterilisationsmittel wurde mindestens 5 Jahre lang geprüft.
# as §2, §3, §4, §5
# Pflanzen von tetraploidem Roggen Sorte Ukrainskaya tetra werden in der V. Periode der Organogenese (nach Kupermann) mit einer 1%igen wässrigen Emulsion von N-(2-Dimethylaminoäthyl)maleaminsäure, N-(3-Dimethyl-aminopropu)maleaminsäure bzw. N-Karbamoylmaleaminsäure behandelt. Die Emulsion enthält 0,1 Masse% Kaliumalkylbenzolsulfonat mit 12 bis 14 Kohlenstoffatomen und 0,01 Masse% Dodezylsulfat. Der Verbrauch an Präparat beträgt 6 kg/ha. Als Kontrolle dienen Pflanzen, behandelt mit einem Verdünner ohne Sterilisationsmittel. Die Prüfergebnisse sind in der Tabelle 6 dargestellt.
# [11] = tested on: Winterweizens Sorte Mir.onovskaya 808; assay: Field test of pollen sterilisation (gametocidal activity), winter wheat Mironovskaya 808; assay type: in vivo, Winterweizen; conditions: 2% aqueous emulsion, 20 kg/ha; for Prozentsatz der Sterilität / Anzahl von Körnern der Ähre bei freier Bestäubung / Anzahl von Körnern der Ähre im Isolator: period V of organogenesis; for Anzahl von Körnern der Ähre bei freier Bestäubung: free pollination; for Anzahl von Körnern der Ähre im Isolator: isolated ears; for Prozentsatz des Ansetzens von Körnern bei freier Bestäubung: period V, non-isolated control ears = 100%
# Text: Als Emulgierungsmittel wird 0,1 Masse% Kalziumalkylbenzolsulfonat mit 12 bis 14 Kohlenstoffatomen hinzugefügt. Als Adjuvans fährt man in die Emulsion 0,01 Masse% Dimethylsulfoxid ein. Der Verbrauch an Präparat beträgt 20 kg/ha. Als Kontrolle dienen Pflanzen, behandelt mit einem Verdünner ohne Sterilisationsmittel.
# Tritikale Sorte Prag 109 = assay: Field test of pollen sterilisation, triticale Prag 109; assay type: in vivo; conditions: 2% aqueous emulsion, 12 kg/ha
# Text: as §6, §2, §3, §4, §5
# V.Periode der Organogenese (nach Kupermann) mit einer 2%igen wässrigen Emulsion von N-(3-Dimethylaminopropyl) maleaminsäure, N-Karbamoylmaleaminsäure behandelt. Die Emulsion enthält 0,01 Masse% Tetrahydrofuran […] und 0,1 Masse% Kalziumalkylbenzolsulfonat mit 12 bis 14 Kohlensotffatomen. Der Verbrauch an Präparat beträgt 12 kg/ha. Als Kontrolle dienen Pflanzen, behandelt mit einem Verdünner ohne Sterilisationsmittel.
smiles,measurement,setting,value
"CN(C)CCNC(=O)/C=C\C(=O)O [Beispiel 1, N-(2-Dimethylaminoäthyl)-maleaminsäure]",LD50,[1],2500 mg/kg
same,Prozentsatz der Sterilität,[2],"99,5%"
same,Anzahl von Körnern der Ähre bei freier Bestäubung,[2],"51,2"
same,Anzahl von Körnern der Ähre im Isolator,[2],"0,2"
same,Prozentsatz des Ansetzens von Körnern bei freier Bestäubung,[2],"91,1%"
same,Prozentsatz der Sterilität,[3],"99,3%"
same,Anzahl von Körnern der Ähre bei freier Bestäubung,[3],"26,8"
same,Anzahl von Körnern der Ähre im Isolator,[3],"0,2"
same,Prozentsatz des Ansetzens von Körnern bei freier Bestäubung,[3],"97,4%"
same,Prozentsatz der Sterilität,[4],"100,0%"
same,Anzahl von Körnern der Ähre bei freier Bestäubung,[4],"51,2"
same,Anzahl von Körnern der Ähre im Isolator,[4],"0,0"
same,Prozentsatz des Ansetzens von Körnern bei freier Bestäubung,[4],"92,7%"
same,Prozentsatz der Sterilität,[5],"100,0%"
same,Anzahl von Körnern der Ähre bei freier Bestäubung,[5],"48,2"
same,Anzahl von Körnern der Ähre im Isolator,[5],"0,0"
same,Prozentsatz des Ansetzens von Körnern bei freier Bestäubung,[5],"88,2%"
same,Prozentsatz der Sterilität,[6],"97,5%"
same,Anzahl von Körnern der Ähre bei freier Bestäubung,[6],"29,8"
same,Anzahl von Körnern der Ähre im Isolator,[6],"0,7"
same,Prozentsatz des Ansetzens von Körnern bei freier Bestäubung,[6],"99,0%"
same,Prozentsatz der Sterilität,[7],"100,0%"
same,Anzahl von Körnern der Rispe bei freier Bestäubung,[7],"224,8"
same,Anzahl von Körnern der Rispe im Isolator,[7],"0,0"
same,Prozentsatz des Ansetzens von Körnern bei freier Bestäubung,[7],"98,9%"
same,Prozentsatz der Sterilität,[8],"99,6%"
same,Anzahl von Körnern der Ähre bei freier Bestäubung,[8],"50,2"
same,Anzahl von Körnern der Ähre im Isolator,[8],"0,2"
same,Prozentsatz des Ansetzens von Körnern bei freier Bestäubung,[8],"88,4%"
same,Prozentsatz der Sterilität,[9],"100,0%"
same,Anzahl von Körnern der Ähre bei freier Bestäubung,[9],"39,7"
same,Anzahl von Körnern der Ähre im Isolator,[9],"0,0"
same,Prozentsatz des Ansetzens von Körnern bei breier Bestäubung,[9],"92,5%"
same,Prozentsatz der Sterilität,[10],"100,0%"
same,Anzahl von Körnern der Ähre bei freier Bestäubung,[10],"40,1"
same,Anzahl von Körnern der Ähre im Isolator,[10],"0,0"
same,Prozentsatz des Ansetzens von Körnern bei freier Bestäubung,[10],"89,5%"
same,Prozentsatz der Sterilität,[11],"99,8%"
same,Anzahl von Körnern der Ähre bei freier Bestäubung,[11],"38,3"
same,Anzahl von Körnern der Ähre im Isolator,[11],"0,1"
same,Prozentsatz des Ansetzens von Körnern bei freier Bestäubung,[11],"89,9%"
"CN(C)CCCNC(=O)/C=C\C(=O)O [Beispiel 2, N-(3-Dimethylaminopropyl)-maleaminsäure]",LD50,[1],> 10000 mg/kg
same,Prozentsatz der Sterilität,Tritikale Sorte Prag 109; period V of organogenesis,"100,0%"
same,Anzahl von Körnern der Ähre bei freier Bestäubung,"Tritikale Sorte Prag 109; period V of organogenesis, free pollination","40,3"
same,Anzahl von Körnern der Ähre im Isolator,"Tritikale Sorte Prag 109; period V of organogenesis, isolated ears","0,0"
same,Prozentsatz des Ansetzens von Körnern bei freier Bestäubung,"Tritikale Sorte Prag 109; period V, non-isolated control ears = 100%","88,0%"
same,Prozentsatz der Sterilität,[2],"100,0%"
same,Anzahl von Körnern der Ähre bei freier Bestäubung,[2],"48,0"
same,Anzahl von Körnern der Ähre im Isolator,[2],"0,0"
same,Prozentsatz des Ansetzens von Körnern bei freier Bestäubung,[2],"85,4%"
same,Prozentsatz der Sterilität,[3],"98,9%"
same,Anzahl von Körnern der Ähre bei freier Bestäubung,[3],"27,0"
same,Anzahl von Körnern der Ähre im Isolator,[3],"0,3"
same,Prozentsatz des Ansetzens von Körnern bei freier Bestäubung,[3],"98,2%"
same,Prozentsatz der Sterilität,[4],"100,0%"
same,Anzahl von Körnern der Ähre bei freier Bestäubung,[4],"48,0"
same,Anzahl von Körnern der Ähre im Isolator,[4],"0,0"
same,Prozentsatz des Ansetzens von Körnern bei freier Bestäubung,[4],"87,0%"
same,Prozentsatz der Sterilität,[5],"100,0%"
same,Anzahl von Körnern der Ähre bei freier Bestäubung,[5],"47,7"
same,Anzahl von Körnern der Ähre im Isolator,[5],"0,0"
same,Prozentsatz des Ansetzens von Körnern bei freier Bestäubung,[5],"87,0%"
same,Prozentsatz der Sterilität,[6],"99,7%"
same,Anzahl von Körnern der Ähre bei freier Bestäubung,[6],"27,7"
same,Anzahl von Körnern der Ähre im Isolator,[6],"0,1"
same,Prozentsatz des Ansetzens von Körnern bei freier Bestäubung,[6],"92,0%"
same,Prozentsatz der Sterilität,[7],"100,0%"
same,Anzahl von Körnern der Rispe bei freier Bestäubung,[7],"214,5"
same,Anzahl von Körnern der Rispe im Isolator,[7],"0,0"
same,Prozentsatz des Ansetzens von Körnern bei freier Bestäubung,[7],"94,4%"
same,Prozentsatz der Sterilität,[8],"100,0%"
same,Anzahl von Körnern der Ähre bei freier Bestäubung,[8],"51,6"
same,Anzahl von Körnern der Ähre im Isolator,[8],"0,0"
same,Prozentsatz des Ansetzens von Körnern bei freier Bestäubung,[8],"90,8%"
same,Prozentsatz der Sterilität,[9],"100,0%"
same,Anzahl von Körnern der Ähre bei freier Bestäubung,[9],"40,2"
same,Anzahl von Körnern der Ähre im Isolator,[9],"0,0"
same,Prozentsatz des Ansetzens von Körnern bei breier Bestäubung,[9],"93,7%"
same,Prozentsatz der Sterilität,[10],"100,0%"
same,Anzahl von Körnern der Ähre bei freier Bestäubung,[10],"42,6"
same,Anzahl von Körnern der Ähre im Isolator,[10],"0,0"
same,Prozentsatz des Ansetzens von Körnern bei freier Bestäubung,[10],"95,1%"
same,Prozentsatz der Sterilität,[11],"99,8%"
same,Anzahl von Körnern der Ähre bei freier Bestäubung,[11],"41,5"
same,Anzahl von Körnern der Ähre im Isolator,[11],"0,1"
same,Prozentsatz des Ansetzens von Körnern bei freier Bestäubung,[11],"97,4%"
